As a reminder, the Ki is a measure of affinity in units of concentration, obtained from inhibition or displacement.

A value given as a limit tells only on which side of the number the result lay.

We go through 33 molecules from patent US8901313B2, “6,5-heterocyclic propargylic alcohol compounds and uses therefor” (Genentech, Inc., priority 2011, dated 2014).

This assay deals with T1, nuclear factor-kappa B (NF-kB)-inducing kinase (NIK) (Homo sapiens, UniProt Q99558).
T1 construct: made in house; host or cells: baculovirus-infected insect cells
T1 sequence (Q99558 whole entry): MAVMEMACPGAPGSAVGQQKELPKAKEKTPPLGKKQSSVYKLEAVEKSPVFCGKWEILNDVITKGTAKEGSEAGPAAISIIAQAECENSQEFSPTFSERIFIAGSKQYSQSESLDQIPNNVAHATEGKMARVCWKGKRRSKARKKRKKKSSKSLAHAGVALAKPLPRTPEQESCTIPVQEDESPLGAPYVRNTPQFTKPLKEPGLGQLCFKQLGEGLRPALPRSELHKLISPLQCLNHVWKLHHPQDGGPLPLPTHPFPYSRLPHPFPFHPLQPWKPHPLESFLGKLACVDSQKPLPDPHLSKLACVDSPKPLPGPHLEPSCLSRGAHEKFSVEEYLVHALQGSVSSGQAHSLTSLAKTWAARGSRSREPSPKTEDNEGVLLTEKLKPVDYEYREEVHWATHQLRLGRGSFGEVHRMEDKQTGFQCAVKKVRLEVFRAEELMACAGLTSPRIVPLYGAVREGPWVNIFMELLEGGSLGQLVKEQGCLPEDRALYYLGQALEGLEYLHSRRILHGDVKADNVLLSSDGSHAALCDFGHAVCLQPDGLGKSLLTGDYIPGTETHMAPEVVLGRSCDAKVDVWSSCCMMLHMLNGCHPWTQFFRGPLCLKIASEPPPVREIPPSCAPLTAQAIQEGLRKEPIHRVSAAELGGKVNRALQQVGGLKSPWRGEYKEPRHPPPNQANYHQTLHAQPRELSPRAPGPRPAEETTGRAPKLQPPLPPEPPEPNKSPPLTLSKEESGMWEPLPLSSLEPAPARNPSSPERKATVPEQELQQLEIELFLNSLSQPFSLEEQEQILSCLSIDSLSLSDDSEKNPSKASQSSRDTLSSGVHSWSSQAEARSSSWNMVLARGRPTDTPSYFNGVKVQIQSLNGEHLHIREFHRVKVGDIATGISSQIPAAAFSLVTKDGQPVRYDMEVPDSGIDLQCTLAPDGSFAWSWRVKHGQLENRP
The experiment in a line: NIK Enzyme Inhibition Assay (Transcreener ADP assay). To be noted: purified NIK 0.2-1 nM, 10 uM ATP, fluorescence polarization, Morrison's quadratic equation; read-out: inhibitory value (Ki) for NIK. The class given is biochemical. (In general: Polarisation of emitted light reports the rotation of a fluorescent probe.)
In the case of `N#Cc1ccc2cnn(-c3nc(N)ncc3[N+](=O)[O-])c2c1` [Example T1-8, 1-(2-amino-5-nitropyrimidin-4-yl)-1H-indazole-6-carbonitrile], the Ki was 411 nM.

Regarding `CC(C)(O)C#Cc1ccc2nc(C3CC3)n(-c3ccnc(N)n3)c2c1` [Example T1-17, 4-(1-(2-aminopyrimidin-4-yl)-2-cyclopropyl-1H-benzo[d]imidazol-6-yl)-2-methylbut-3-yn-2-ol], the inhibition constant (Ki) is 2900 nM. Take `COc1ncccc1Nc1ncnc(-n2ncc3ccc(C#CC(C)(C)O)cc32)n1` [Example T1-24, 4-(1-(4-(2-methoxypyridin-3-ylamino)-1,3,5-triazin-2-yl)-1H-indazol-6-yl)-2-methylbut-3-yn-2-ol]: the inhibition constant Ki turned out to be 2100 nM. For `CN(C)C(=O)c1nn(-c2ccnc(N)n2)c2cc(C#CC(C)(C)O)ccc12` [Example T1-30, 1-(2-aminopyrimidin-4-yl)-6-(3-hydroxy-3-methylbut-1-ynyl)-N,N-dimethyl-1H-indazole-3-carboxamide] the value was 60 nM; for `COc1ncccc1Nc1cc(-n2ncc3ccc(C#CC(C)(C)O)cc32)ncn1` [Example T1-31, 4-(1-(6-(2-methoxypyridin-3-ylamino)pyrimidin-4-yl)-1H-indazol-6-yl)-2-methylbut-3-yn-2-ol], 4600 nM; for `CN(C)C(=O)c1nn(-c2ccnc(N)n2)c2cc(C#C[C@@](C)(O)c3nccs3)ccc12` [Example T1-46, (R)-1-(2-aminopyrimidin-4-yl)-6-(3-hydroxy-3-(thiazol-2-yl)but-1-ynyl)-N,N-dimethyl-1H-indazole-3-carboxamide], 0.16 nM.

As for `C[C@@](O)(C#Cc1ccc2[nH]c(=O)n(-c3ccnc(N)n3)c2c1)c1nccs1` [Example T1-47, (R)-1-(2-aminopyrimidin-4-yl)-6-(3-hydroxy-3-(thiazol-2-yl)but-1-ynyl)-1H-benzo[d] imidazol-2(3H)-one], the Ki is 0.11 nM. Consider `Cc1nn(-c2ccnc(N)n2)c2cc(C#C[C@](C)(O)c3nccs3)ccc12` [Example T1-49, (S)-4-(1-(2-aminopyrimidin-4-yl)-3-methyl-1H-indazol-6-yl)-2-(thiazol-2-yl)but-3-yn-2-ol], for which the inhibitory constant (Ki) came to 847 nM.

Consider `Cc1csc(C(C)(O)C#Cc2ccc3c(C)nn(-c4ccnc(N)n4)c3c2)n1` (stereo not drawn) [Example T1-51, 4-(1-(2-aminopyrimidin-4-yl)-3-methyl-1H-indazol-6-yl)-2-(4-methylthiazol-2-yl)but-3-yn-2-ol], for which the inhibitory constant (Ki) stood at 575 nM.

Regarding `Cc1nn(-c2ccnc(N)n2)c2cc(C#CC3(O)CCN(C)CC3)ccc12` [Example T1-69, 4-((1-(2-aminopyrimidin-4-yl)-3-methyl-1H-indazol-6-yl)ethynyl)-1-methylpiperidin-4-ol], the inhibitory constant (Ki) was no less than 5000 nM. With `CCOc1nc2ccc(C#CC(C)(O)c3cc(C)on3)cc2n1-c1ccnc(N)n1` (stereo not drawn) [Example T1-70, 4-(1-(2-aminopyrimidin-4-yl)-2-ethoxy-1H-benzo[d]imidazol-6-yl)-2-(5-methyl-isoxazol-3-yl)but-3-yn-2-ol], the Ki amounted to 0.5 nM. Regarding `Cc1cc([C@](C)(O)C#Cc2ccc3[nH]c(=O)n(-c4ccnc(N)n4)c3c2)no1` [Example T1.1-1, 3-(2-aminopyrimidin-4-yl)-[(3R)-3-hydroxy-3-(5-methyl-isoxazol-3-yl)but-1-ynyl]-1H-benzimidazol-2-one], the Ki is 0.1 nM. Turning to `Cc1nc2ccc(C#C[C@@](C)(O)c3nccs3)cc2n1-c1ncnc(N)n1` [Example T1.1-2, (2R)-4-[3-(4-amino-1,3,5-triazin-2-yl)-2-methyl-benzimidazol-5-yl]-2-thiazol-2-yl-but-3-yn-2-ol], the inhibitory constant (Ki) stood at 0.2 nM. For `Cc1cc(C(C)(O)C#Cc2ccc3c(C(O)C(C)C)nn(-c4ccnc(N)n4)c3c2)no1` (stereo not drawn) [Example T1.1-3, 4-[1-(2-aminopyrimidin-4-yl)-3-(1-hydroxy-2-methyl-pro-pyl)indazol-6-yl]-2-(5-methyl-isoxazol-3-yl)but-3-yn-2-ol] the value was 0.2 nM; for `Cc1cc([C@](C)(O)C#Cc2ccc3c(CO)nn(-c4ccnc(N)n4)c3c2)no1` [Example T1.1-4, (2R)-4-[1-(2-aminopyrimidin-4-yl)-3-(hydroxymethyl)indazol-6-yl]-2-(5-methyl-isoxazol-3-yl)but-3-yn-2-ol], 0.22 nM. For `Cc1cc([C@](C)(O)C#Cc2ccc3nc(C)n(-c4ncnc(N)n4)c3c2)no1` [Example T1.1-5, (2R)-4-[3-(4-amino-1,3,5-triazin-2-yl)-2-methyl-benzimidazol-5-yl]-2-(5-methylisoxazol-3-yl)but-3-yn-2-ol] the value was 0.32 nM. The value for `Cc1cc(C(C)(O)C#Cc2ccc3c(C(C)(O)C4CC4)nn(-c4ccnc(N)n4)c3c2)no1` (stereo not drawn) [Example T1.1-6, 4-[1-(2-aminopyrimidin-4-yl)-3-(1-cyclopropyl-1-hydroxy-ethyl)indazol-6-yl]-2-(5-methylisoxazol-3-yl)but-3-yn-2-ol] was 0.32 nM. Consider `Cc1nc([C@](C)(O)C#Cc2ccc3c(C(C)(C)O)nn(-c4ccnc(N)n4)c3c2)no1` [Example T1.1-7, (2R)-4-[1-(2-aminopyrimidin-4-yl)-3-(1-hydroxy-1-methyl-ethyl)indazol-6-yl]-2-(5-methyl-1,2,4-oxadiazol-3-yl) but-3-yn-2-ol], for which the inhibitory constant (Ki) was 0.4 nM.

For the molecule `Cc1nc([C@](C)(O)C#Cc2ccc3c(CF)nn(-c4ccnc(N)n4)c3c2)no1` [Example T1.1-8, (2R)-4-[1-(2-aminopyrimidin-4-yl)-3-(fluoromethyl)indazol-6-yl]-2-(5-methyl-1,2,4-oxadiazol-3-yl)but-3-yn-2-ol], the Ki worked out at 0.5 nM. On to `Cc1cc([C@](C)(O)C#Cc2ccc3c(C(C)(C)O)nn(-c4ccnc(N)n4)c3c2)no1` [Example T1.1-9, (2R)-4-[1-(2-aminopyrimidin-4-yl)-3-(1-hydroxy-1-methyl-ethyl)indazol-6-yl]-2-(5-methyl-isoxazol-3-yl)but-3-yn-2-ol], for which the inhibition constant (Ki) came out at 0.5 nM.

As for `Cc1cc([C@](C)(O)C#Cc2ccc3c(c2)n(-c2ccnc(N)n2)c(=O)n3C)no1` [Example T1.1-10, 3-(2-aminopyrimidin-4-yl)-5-[(3R)-3-hydroxy-3-(5-methylisoxazol-3-yl)but-1-ynyl]-1-methyl-benzimidazol-2-one], the inhibition constant (Ki) was found to be 0.5 nM. Take `Cc1nn(-c2ccnc(N)n2)c2cc(C#CC(C)(O)c3c[nH]cn3)ccc12` (stereo not drawn) [Example T1.1-12, 4-[1-(2-aminopyrimidin-4-yl)-3-methyl-indazol-6-yl]-2-(1H-imidazol-4-yl)but-3-yn-2-ol]: the Ki was 0.6 nM.

As for `Cc1cc(C(C)(O)C#Cc2ccc3nc(OCC(O)CO)n(-c4ccnc(N)n4)c3c2)no1` (stereo not drawn) [Example T1.1-13, 3-[1-(2-aminopyrimidin-4-yl)-6-[3-hydroxy-3-(5-methylisoxazol-3-yl)but-1-ynyl]benzimidazol-2-yl]oxypropane-1,2-diol], the Ki amounted to 0.6 nM. Turning to `Cc1cc([C@](C)(O)C#Cc2ccc3c(C(=O)N4CCOCC4)nn(-c4ccnc(N)n4)c3c2)no1` [Example T1.1-14, [1-(2-aminopyrimidin-4-yl)-6-[(3R)-3-hydroxy-3-(5-methylisoxazol-3-yl)but-1-ynyl]indazol-3-yl]-morpholino-methanone], the inhibitory constant (Ki) was 0.8 nM. For `CNC(=O)c1nn(-c2ccnc(N)n2)c2cc(C#C[C@@](C)(O)c3cc(C)on3)ccc12` [Example T1.1-15, 1-(2-aminopyrimidin-4-yl)-6-[(3R)-3-hydroxy-3-(5-methylisoxazol-3-yl)but-1-ynyl]-N-methyl-indazole-3-carboxamide], the inhibitory constant (Ki) was 1 nM.

Take `Cc1nn(-c2ccnc(N)n2)c2cc(C#CC3(O)CCN(C)C3=O)ccc12` (stereo not drawn) [Example T1.1-16, 3-[2-[1-(2-aminopyrimidin-4-yl)-3-methyl-indazol-6-yl]ethynyl]-3-hydroxy-1-methyl-pyrrolidin-2-one]: the Ki is 1 nM. As to `CCOc1nc2ccc(C#CC(C)(O)c3cc(CO)on3)cc2n1-c1ccnc(N)n1` (stereo not drawn) [Example T1.1-17, 4-[3-(2-aminopyrimidin-4-yl)-2-ethoxy-benzimidazol-5-yl]-2-[5-(hydroxymethyl)isoxdazol-3-yl]but-3-yn-2-ol], the inhibition constant (Ki) came to 1 nM. Turning to `Cc1nn(-c2ccnc(N)n2)c2cc(C#CC(C)(O)c3cc(CF)on3)ccc12` (stereo not drawn) [Example T1.1-19, 4-[1-(2-aminopyrimidin-4-yl)-3-methyl-indazol-6-yl]-2-[5-(fluoromethyl)isoxazol-3-yl]but-3-yn-2-ol], the Ki worked out at 1 nM. As to `Cc1cc([C@](C)(O)C#Cc2ccc3c(C(N)=O)nn(-c4ccnc(N)n4)c3c2)no1` [Example T1.1-20, 1-(2-aminopyrimidin-4-yl)-6-[(3R)-3-hydroxy-3-(5-methyl-isoxazol-3-yl)but-1-ynyl] indazole-3-carboxamide], the inhibition constant Ki stood at 1 nM. For `CC(O)(C#Cc1ccc2[nH]c(=O)n(-c3ccnc(N)n3)c2c1)c1cc(CO)on1` (stereo not drawn) [Example T1.1-21, 3-(2-aminopyrimidin-4-yl)-5-[3-hydroxy-3-[5-(hydroxymethyl)isoxazol-3-yl]but-1-ynyl]-1H-benzimidazol-2-one] the value was 1 nM; for `Cn1c(=O)n(-c2ccnc(N)n2)c2cc(C#CC3(O)CCn4ccnc43)ccc21` (stereo not drawn) [Example T1.1-22, 3-(2-aminopyrimidin-4-yl)-5-[2-(7-hydroxy-5,6-dihydropyrrolo[1,2-a]imidazol-7-yl)ethynyl]-1-methyl-benzimidazol-2-one], 1 nM; for `Cc1nc([C@](C)(O)C#Cc2ccc3c(C(=O)N4CC(O)C4)nn(-c4nc(N)ncc4Cl)c3c2)no1` [Example T1.1-23, [1-(2-amino-5-chloro-pyrimidin-4-yl)-6-[(3R)-3-hydroxy-3-(5-methyl-1,2,4-oxadiazol-3-yl)but-1-ynyl]indazol-3-yl]-(3-hydroxy-azetidin-1-yl)methanone], 1 nM. As for `Cc1nc([C@](C)(O)C#Cc2ccc3c(C(=O)N4CCC(F)CC4)nn(-c4ccnc(N)n4)c3c2)no1` [Example T1.1-24, [1-(2-aminopyrimidin-4-yl)-6-[(3R)-3-hydroxy-3-(5-methyl-1,2,4-oxadiazol-3-yl)but-1-ynyl]indazol-3-yl]-(4-fluoro-1-piperidyl)methanone], the Ki amounted to 1 nM.
